# Laboratory results reported in US9945862B2, “Biomarkers for predicting and assessing responsiveness of thyroid and kidney cancer subjects to lenvatinib compounds” (Eisai R&D Management Co., Ltd., priority 2011, dated 2018).
# “Also recorded” adds a separate entry of the source.
# What was measured:
# thyroglobulin [1] = assay: Serum thyroglobulin, chemiluminescent immunometric assay (IMMULITE 2000), pre- and post-treatment with E7080; type: in vivo, human
# Method: The serum for the thyroglobulin assays was collected within 72 hours prior to Day 1 of all cycles. 24 mg of E7080 was administered orally, daily continuously in 28-day cycles. Serum samples from 58 patients were used for thyroglobulin measurements. 6 mL of blood was drawn into red top tubes and let to clot at room temperature for at least 30 min. Within 60 minutes of sample collection, the tubes were centrifuged for 15 minutes at 20-25° C. at 1000×g. The supernatant was drawn without disturbing the pellet, put into sample tubes with serum filter and shipped frozen to the central lab for testing on the day of collection. The level of thyroglobulin was detected by a solid-phase, chemiluminescent immunometric assay (IMMULITE 2000 Thyroglobulin Assay System, Siemens) following standard operating procedure. In brief, serum thyroglobulin was captured by beads coated with anti-thyroglobulin antibody and detected using anti-thyroglobulin antibody linked to alkaline phosphatase. The level of serum thyroglobulin was calculated from a standard curve generated with lyophilized thyroglobulin. Serum thyroglobulin was stable for up to 2 months when stored frozen for the assay. The sensitivity of this assay was 0.2 ng/ml. From 58 patient samples, 50 pre- and post-treatment blood samples at maximum were used for these analyses. Dramatic changes in thyroglobulin levels were observed 29 days after the start of treatment with E7080.
# [2] = test system: differentiated thyroid cancer patients; assay: Progression free survival of E7080-treated DTC patients (Logrank test, Cox proportional hazards model with or without PK covariate); type: in vivo, human; conditions: patients with mutations in NRAS alone or in either NRAS or KRAS vs wild type for NRAS or KRAS
# Method: The period during which a patient takes E7080 was artificially divided into different Cycles for ease of evaluation and tracking. Patients received E7080 at a dose of 24 mg oral once daily in 28 day cycles. For analysis purposes, assessments of clinical outcomes were performed at the time of the 9 month and at 14 month minimum follow-up. For the E7080 Thyroid Cancer trial, each Cycle is 28 days (4 weeks) so Day 1-28 is cycle 1; Day 29 is Day 1 of Cycle 2; and Day 57 is Day 1 of Cycle 3. Blood samples were collected for pharmacokinetic (PK) analysis on Cycle 1 Days 1 and 8, Cycle 2 Day 1, and Cycle 3 Day 1. A total of 9 samples per patient were collected as follows: Cycle 1 Day 1: immediately prior to the dose of E7080, and at 0.5 and 2 hours following the first dose of E7080 (post-dose); Cycle 1 Day 8: immediately prior to the dose of E7080; Cycle 2 Day 1: immediately prior to the dose of E7080, 0.5 and 2 hours post-dose; Cycle 3 Day 1: immediately prior to the dose of E7080 and 2 hours post-dose. For analysis of progression free survival, PK parameter was used as a covariate in Cox proportional hazards model. […]
# The association of gene mutations with progression free survival of treated patients was analyzed first by performing Logrank test and then using Cox proportional hazards model with or without covariates. […]
# [3] = test system: differentiated thyroid cancer patients; assay: Multivariate prediction models of PFS combining mutations and blood biomarkers (Cox proportional hazards model, hazard threshold, log rank test); type: in vivo, human; conditions: pre-treatment
# Method: All factors (i.e., mutations, thyroglobulin, cytokine, chemokine and angiogenic factors) were used as independent variables of interest, that is, as biomarker candidates. PFS was used as a dependent variable, that is, as one of the clinical outcomes, in this analysis. Firstly, all factors were screened according to p-values calculated by Cox proportional hazards model with single factor. Secondly, all combinations of the screened factors were tested by Cox proportional hazards model to find significant factors in all combinations of the factors. Combinations in which all factors were significant were chosen for further analysis. Hazard functions of the combinations of factors defined by their coefficients were obtained from this analysis. Each patient has his/her own hazard value for each model, so that patients can be assigned into two groups when a threshold of hazard is given for a model. After grouping patients, log rank test of progression free survival was performed to test difference of survival curves between two groups (low hazard and high hazard). The best threshold of hazard for each model of combination of factors was identified by sweeping threshold to calculate log rank test p-values and finding a threshold that minimized the smoothed curve constructed from the p-values, which was similar to the approach described in U. Abel, J. Berger and H. Wiebelt, “CRITLEVEL: An Exploratory Procedure for the Evaluation of Quantitative Prognostic Factors”, Methods Inf. Medicine, 23(3):154-6(1984). The best thresholds of the models divided patients into high and low hazard groups. Patients are predicted as longer PFS when their hazard value is lower than the threshold.
# thyroglobulin [4] = assay: Serum thyroglobulin, chemiluminescent immunometric assay (IMMULITE 2000), pre- and post-treatment with E7080; type: in vivo, human; conditions: 48 days (within 2 cycles) after treatment; decrease continued to cycle 8
# [5] = test system: thyroid, kidney and endometrial cancers, as well as melanoma; conditions: phase I; cited from earlier work
smiles,measurement,setting,value
"COc1cc2nccc(Oc3ccc(NC(=O)NC4CC4)c(Cl)c3)c2cc1C(N)=O [E7080, 4-(3-chloro-4-(cyclopropylaminocarbonyl)aminophenoxy)-7-methoxy-6-quinolinecarboxamide]","Thyroglobulin level ratio (median), Other group (SD or PD)",thyroglobulin [1]; CYCLE2 DAY 1/CYCLE1 DAY 1,0.288
same,"Thyroglobulin level ratio (median), PR group",thyroglobulin [1]; CYCLE2 DAY 1/CYCLE1 DAY 1,0.195
same,"Thyroglobulin level ratio (median), Other group (SD or PD)",thyroglobulin [1]; CYCLE3 DAY 1/CYCLE1 DAY 1,0.221
same,"Thyroglobulin level ratio (median), PR group",thyroglobulin [1]; CYCLE3 DAY 1/CYCLE1 DAY 1,0.109
same,"Thyroglobulin level ratio (median), Other group (SD or PD)",thyroglobulin [1]; CYCLE4 DAY 1/CYCLE1 DAY 1,0.227
same,"Thyroglobulin level ratio (median), PR group",thyroglobulin [1]; CYCLE4 DAY 1/CYCLE1 DAY 1,0.079
same,"Thyroglobulin level ratio (median), Other group (SD or PD)",thyroglobulin [1]; CYCLE5 DAY 1/CYCLE1 DAY 1,0.332
same,"Thyroglobulin level ratio (median), PR group",thyroglobulin [1]; CYCLE5 DAY 1/CYCLE1 DAY 1,0.106
same,"Thyroglobulin level ratio (median), Other group (SD or PD)",thyroglobulin [1]; CYCLE6 DAY 1/CYCLE1 DAY 1,0.198
same,"Thyroglobulin level ratio (median), PR group",thyroglobulin [1]; CYCLE6 DAY 1/CYCLE1 DAY 1,0.078
same,"Progression free survival, Logrank test",[2],better progression free survival; also recorded: better PFS
same,"HR (low vs high hazard group, PFS)",[3]; prediction model: ANG-2,0.545
same,"HR (low vs high hazard group, PFS)",[3]; prediction model: IL13 + MIP1a,1.00E−09
same,"HR (low vs high hazard group, PFS)",[3]; prediction model: IL13 + MIP1a + MIP1b,0.121
same,"HR (low vs high hazard group, PFS)",[3]; prediction model: NRAS mutation + ANG-2 (log10(ANg2)),0.115
same,"HR (low vs high hazard group, PFS)",[3]; prediction model: NRAS mutation + ANG-2 (log10(Ang290)),0.085
same,"HR (low vs high hazard group, PFS)",[3]; prediction model: NRAS mutation + VEGFA + ANG-2 + MIP1b + sVEGFR3,2.60E−10
same,"HR (low vs high hazard group, PFS)",[3]; prediction model: NRAS mutation + VEGFA + MIP1b,0.097
same,"HR (low vs high hazard group, PFS)",[3]; prediction model: NRAS mutation + VEGFA + MIP1b + sVEGFR3,0.054
same,"HR (low vs high hazard group, PFS)","[3]; prediction model: NRAS mutation, D(NRAS, MU)",0.124
same,"HR (low vs high hazard group, PFS)",[3]; prediction model: VEGFA,0.552
same,"HR (low vs high hazard group, PFS)",[3]; prediction model: VEGFA + ANG-2,0.386
same,"HR (low vs high hazard group, PFS)",[3]; prediction model: VEGFA + ANG-2 + GCSF,0.413
same,"HR (low vs high hazard group, PFS)","[3]; prediction model: mutation in any of BRAF, KRAS, NRAS + MIP1a",0.086
same,"HR (low vs high hazard group, PFS)","[3]; prediction model: mutation in any of BRAF, KRAS, NRAS + VEGFA + MIP1a + MIP1b + IL-6",1.90E−10
same,"HR (low vs high hazard group, PFS)","[3]; prediction model: mutation in any of KRAS, NRAS + ANG-2",0.083
same,"HR (low vs high hazard group, PFS)","[3]; prediction model: mutation in any of KRAS, NRAS, D(KRASNRAS, MU)",0.205
same,Change in serum thyroglobulin levels after treatment,thyroglobulin [4],significantly decreased
same,Clinical response,[5],response to treatment was observed
